We go through three compounds from patent publication US8580785B2, “Insecticides” (Syngenta Crop Protection LLC, priority 2005, dated 2013).

One series has as its system Plutella xylostella. Nature of the series: Activity against Plutella xylostella. Format: in vivo. As to conditions: 72 h, 400 ppm spray on young cabbage plants, 3rd instar caterpillars, 3 days, read-out: percentage reduction in the population and in the feeding damage (% activity). How it is done: Young cabbage plants are sprayed with an aqueous emulsion spray mixture comprising 400 ppm of active ingredient and, after the spray coating has dried on, populated with 10 caterpillars (3rd instar) of Plutella xylostella and introduced into a plastic container. 3 days later, the percentage reduction in the population and in the feeding damage (% activity) are determined by comparing the number of dead caterpillars and the feeding damage between the treated and untreated plants.

The next series concerns Spodoptera littoralis. Nature of the series: Activity against Spodoptera littoralis. The series is classed as in vivo. As to conditions: 72 h, 400 ppm spray on young soya plants, 1st instar caterpillars, 3 days, read-out: percentage reduction in the population and in the feeding damage (% activity). How it is done: Young soya plants are sprayed with an aqueous emulsion spray mixture comprising 400 ppm of active ingredient and, after the spray coating has dried on, populated with 10 caterpillars (1st instar) of Spodoptera littoralis and introduced into a plastic container. 3 days later, the percentage reduction in the population and in the feeding damage (% activity) are determined by comparing the number of dead caterpillars and the feeding damage between the treated and untreated plants.

Another series relates to Heliothis virescens. Nature of the series: Activity against Heliothis virescens (foliar application). Format: in vivo. As to conditions: 144 h, 400 ppm spray on young soya plants, 1st instar caterpillars, 6 days, read-out: percentage reduction in the population and in the feeding damage (% activity). How it is done:
Young soya plants are sprayed with an aqueous emulsion spray mixture comprising 400 ppm of active ingredient and, after the spray coating has dried on, populated with 10 caterpillars (1st instar) of Heliothis virescens and introduced into a plastic container. 6 days later, the percentage reduction in the population and in the feeding damage (% activity) are determined by comparing the number of dead caterpillars and the feeding damage between the treated and untreated plants.

Series [1] deals with Frankliniella occidentalis. Nature of the series: Activity against Frankliniella occidentalis. As to conditions: bean leaf discs (6 days) or bean plants (14 days); mixed population. The series is classed as in vivo. How it is done: Bean leaf discs on agar in petri dishes or bean plants in a spray chamber are treated with diluted test solutions. After drying leaf discs are cut and placed in plastic cups on the surface of an agar layer and infested with mixed population. 6 days (leaf discs) or 14 days (plants) after the infestation, samples are checked for reduction of treated population and compared to the non treated population. In this test, compounds listed in Table P above show good activity. In particular compound T7.1.7 has an activity of over 80%.

The next series relates to Diabrotica balteata. Nature of the series: Activity against Diabrotica balteata (sprayed maize seedlings). Format: in vivo. The note with it: 144 h, 400 ppm spray on maize seedlings, 2nd instar larvae, 6 days, read-out: percentage reduction in the population (% activity). How it is done: Maize seedlings are sprayed with an aqueous emulsion spray mixture comprising 400 ppm of active ingredient and, after the spray coating has dried on, populated with 10 larvae (2nd instar) of Diabrotica balteata and introduced into a plastic container. 6 days later, the percentage reduction in the population (% activity) is determined by comparing the number of dead larvae between the treated and untreated plants.

For another series, the system named is Myzus persicae. Nature of the series: Systemic insecticide test for Myzus persicae. The series is classed as in vivo. The note with it: roots of infected pea seedlings in 400 ppm spray mixture, 20°, 3 and 6 days, read-out: percentage reduction in the population (% activity). How it is done: Pea seedlings are infected with Myzus persicae, and their roots are subsequently placed into a spray mixture comprising 400 ppm of active ingredient. The seedlings are then incubated at 20°. 3 and 6 days later, the percentage reduction in the population (% activity) is determined by comparing the number of dead aphids between the treated and untreated plants.

For the compound `Cc1ccc2c(C)c(NC(=O)c3cc(C(F)(F)F)nn3-c3ncccc3Cl)c(C(=O)NC(C)C)cc2n1` [Compound T7.1.7], the inhibition at 400 ppm with Plutella xylostella, with Spodoptera littoralis and with Heliothis virescens was above 80% in each case. Besides, in series [1], the “reduction of treated population (activity)” value is given as “over 80%”.

Compound `CC(C)NC(=O)c1cc2ncn(C)c2c(Cl)c1NC(=O)c1cc(C(F)(F)F)nn1-c1ncccc1Cl` [Compound T22.1.8, 7-chloro-6-{[2-(3-chloro-pyridin-2-yl)-5-trifluoromethyl-2H-pyrazole-3-carbonyl]-amino}-1-methyl-1H-benzoimidazole-5-carboxylic acid isopropylamide] yielded a melting point of 150 to 155 °C. Besides, the inhibition at 400 ppm in the series with Plutella xylostella is above 80%. In addition, in the series on Diabrotica balteata, the inhibition at 400 ppm was above 80%. The inhibition at 400 ppm in the series on Spodoptera littoralis is above 80%.

`Cc1nc2cc(C(=O)NC(C)C)c(NC(=O)c3cc(C(F)(F)F)nn3-c3ncccc3Cl)c(Cl)c2n1C` [Compound T35.1.8, 7-chloro-6-{[2-(3-chloro-pyridin-2-yl)-5-trifluoromethyl-2H-pyrazole-3-carbonyl]-amino}-1,2-dimethyl-1H-benzoimidazole-5-carboxylic acid isopropylamide] registered a melting point of 248 to 250 °C. Further, the inhibition at 400 ppm with Plutella xylostella is above 80%. In addition, in the series on Spodoptera littoralis, the inhibition at 400 ppm was above 80%. For the same compound, in the series on Myzus persicae, the inhibition at 400 ppm is above 80%.
